Test results taken from patent US5102907A, “Novel squalene synthetase inhibitors” (Merck & Co., Inc., priority 1990, dated 1992).
In brackets after ≈: the same amount, converted by molar mass.

What was measured:
Assay in all cases: antifungal (yeast) sensitivity, inhibitor dilution assay in microtiter format
Settings in all cases: YNB/G, lowest concentration to prevent growth, 24 to 48 hours, 35° C., read-out: Minimum Inhibitory Concentration
[1] = tested on: Crypt. neoformans MY1051; type: cell-based, Cryptococcus neoformans
Method: (§1) The compounds are particularly active towards filamentous fungi and yeasts including Candida albicans and Cryptococcus neoformans. The sensitivity of filamentous fungi and yeast was determined using inhibitor dilution assays in microtiter format. The compounds were dissolved in DMSO at 2 mg/ml and serially diluted in 0.1M phosphate buffer, pH 7.0 in the microtiter dish from 100 to 0.006 μg/ml. A standardized spore suspension for testing the filamentous fungi was prepared by inoculating Antibiotic Medium #3 containing 1.5% agar with spores such that 1.5×10^3 colony forming units were added per well. The microtiter wells were filled with 50 μl of buffer containing compound and 50 μl of inoculated medium.
(§2) The sensitivity of yeasts was determined by inoculating yeast nitrogen base containing 1% dextrose (YNB/G) with aliquots of an overnight yeast culture grown in Yeast Morphology (YM) media at 35° C. and diluting in YNB/G to yield a final concentration of 1.5-7.5×10^3 colony forming units/well. To test the sensitivity of yeast, compound was solubilized in 10 percent aqueous DMSO at 2.56 mg/ml. The compound was diluted serially in YNB/G from 128 to 0.06 μg/ml and further diluted 1:10 in YNB/G. The wells were filled with 150 μl of media containing drug. […]

[2] = tested on: C. tropicalis MY1012; type: cell-based, Candida tropicalis
Method: as §1, §2

[3] = tested on: C. parapsilosis MY1010; type: cell-based, Candida parapsilosis
Method: as §1, §2

MIC [1]: 1 µg/mL (≈ 1.32 µM) | MIC [2]: 8 µg/mL (≈ 10.6 µM) | MIC [3]: 8 µg/mL (≈ 10.6 µM)
SMILES: CC(=O)OC(CCCC12OC(C(=O)O)C(O)(C(=O)O)C(C(=O)O)(O1)C(OC(=O)CCC=CC(C)CCCc1ccccc1)C2O)C(C)Cc1ccccc1 (stereo not drawn) [Compound A]
